Reference: PMC6704710, “Preclinical evaluation of 3D185, a novel potent inhibitor of FGFR1/2/3 and CSF-1R, in FGFR-dependent and macrophage-dominant cancer models” (Journal of Experimental & Clinical Cancer Research : CR, 2019)

How the values were obtained:
Assay in all cases: Eurofins kinase panel
Assay type in all cases: biochemical
Conditions in all cases: read-out: Inhibition rate (%)
[1] = target: T1, Ret(h) (Homo sapiens, UniProt P07949)
T1 construct: purchased Eurofins (KinaseProfiler)

[2] = target: T2, A-Raf(h) (Homo sapiens, UniProt P10398)
T2 construct: purchased Eurofins (KinaseProfiler)
T2 sequence (P10398 1-606): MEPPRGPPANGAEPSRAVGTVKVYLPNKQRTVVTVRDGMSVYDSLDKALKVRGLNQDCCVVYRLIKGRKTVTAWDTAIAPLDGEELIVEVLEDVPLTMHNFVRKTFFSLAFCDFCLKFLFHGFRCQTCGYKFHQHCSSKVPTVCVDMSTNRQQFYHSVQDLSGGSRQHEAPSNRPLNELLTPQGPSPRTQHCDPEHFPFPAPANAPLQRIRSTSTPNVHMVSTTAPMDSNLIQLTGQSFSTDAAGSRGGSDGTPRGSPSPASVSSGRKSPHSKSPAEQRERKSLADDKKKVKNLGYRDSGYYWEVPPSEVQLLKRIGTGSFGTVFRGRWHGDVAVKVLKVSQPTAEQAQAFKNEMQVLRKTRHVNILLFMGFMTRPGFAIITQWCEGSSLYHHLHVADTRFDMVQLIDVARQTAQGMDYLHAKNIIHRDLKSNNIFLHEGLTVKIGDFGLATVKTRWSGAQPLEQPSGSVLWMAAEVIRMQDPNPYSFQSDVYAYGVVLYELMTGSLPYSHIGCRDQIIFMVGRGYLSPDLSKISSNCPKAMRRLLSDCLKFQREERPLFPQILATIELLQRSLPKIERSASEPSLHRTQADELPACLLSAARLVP

[3] = target: T3, MuSK(h) (Homo sapiens, UniProt O15146)
T3 construct: purchased Eurofins (KinaseProfiler)
T3 sequence (O15146 24-869): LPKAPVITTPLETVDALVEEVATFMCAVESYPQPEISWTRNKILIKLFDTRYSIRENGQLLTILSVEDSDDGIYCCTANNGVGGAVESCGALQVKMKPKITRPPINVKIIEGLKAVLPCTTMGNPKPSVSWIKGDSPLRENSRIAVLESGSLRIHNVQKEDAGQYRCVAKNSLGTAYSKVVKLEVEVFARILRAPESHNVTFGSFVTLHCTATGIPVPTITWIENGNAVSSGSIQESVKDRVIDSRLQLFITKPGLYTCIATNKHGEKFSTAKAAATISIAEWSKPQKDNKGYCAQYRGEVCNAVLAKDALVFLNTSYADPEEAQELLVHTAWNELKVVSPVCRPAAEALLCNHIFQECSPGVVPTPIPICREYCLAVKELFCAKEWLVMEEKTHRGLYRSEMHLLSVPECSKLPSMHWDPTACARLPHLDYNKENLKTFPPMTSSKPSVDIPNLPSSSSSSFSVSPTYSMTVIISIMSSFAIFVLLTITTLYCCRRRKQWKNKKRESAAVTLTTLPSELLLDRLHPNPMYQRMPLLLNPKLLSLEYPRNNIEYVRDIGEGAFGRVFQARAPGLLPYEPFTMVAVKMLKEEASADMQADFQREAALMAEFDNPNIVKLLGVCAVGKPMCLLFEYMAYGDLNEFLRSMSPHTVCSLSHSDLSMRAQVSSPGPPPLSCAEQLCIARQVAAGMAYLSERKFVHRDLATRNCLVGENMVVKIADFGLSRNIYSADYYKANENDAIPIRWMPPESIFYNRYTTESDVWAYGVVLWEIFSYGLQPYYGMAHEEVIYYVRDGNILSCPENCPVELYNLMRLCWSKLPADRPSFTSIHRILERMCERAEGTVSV

[4] = target: T4, CDK18/cyclinY(h) (Homo sapiens, UniProt Q07002)
T4 construct: purchased Eurofins (KinaseProfiler)

[5] = target: T5, SRPK2(h) (Homo sapiens, UniProt P78362)
T5 construct: purchased Eurofins (KinaseProfiler)

[6] = target: T6, ROCK-II(h) (Homo sapiens, UniProt O75116)
T6 construct: purchased Eurofins (KinaseProfiler)

[7] = target: T7, PKCε(h) (Homo sapiens, UniProt Q02156)
T7 construct: purchased Eurofins (KinaseProfiler)
T7 sequence (Q02156 1-737): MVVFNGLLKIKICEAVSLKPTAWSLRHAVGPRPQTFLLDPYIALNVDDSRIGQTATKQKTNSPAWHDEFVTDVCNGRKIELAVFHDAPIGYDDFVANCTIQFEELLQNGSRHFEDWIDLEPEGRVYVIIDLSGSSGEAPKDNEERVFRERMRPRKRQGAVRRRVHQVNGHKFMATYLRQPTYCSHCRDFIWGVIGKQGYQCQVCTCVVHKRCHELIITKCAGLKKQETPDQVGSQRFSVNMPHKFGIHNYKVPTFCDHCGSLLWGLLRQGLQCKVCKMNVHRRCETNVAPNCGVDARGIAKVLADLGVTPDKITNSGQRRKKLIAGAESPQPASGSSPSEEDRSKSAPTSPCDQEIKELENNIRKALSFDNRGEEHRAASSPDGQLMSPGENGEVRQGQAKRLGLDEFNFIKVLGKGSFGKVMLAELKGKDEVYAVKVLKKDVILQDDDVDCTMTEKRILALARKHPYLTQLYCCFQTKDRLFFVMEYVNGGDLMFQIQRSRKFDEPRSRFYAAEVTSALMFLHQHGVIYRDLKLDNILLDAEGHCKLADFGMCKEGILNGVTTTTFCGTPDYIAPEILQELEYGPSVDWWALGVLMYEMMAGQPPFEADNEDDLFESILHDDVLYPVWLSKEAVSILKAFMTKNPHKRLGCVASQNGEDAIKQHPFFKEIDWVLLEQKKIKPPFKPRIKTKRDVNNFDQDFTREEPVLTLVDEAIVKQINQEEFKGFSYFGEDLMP

[8] = target: T8, SIK3(h) (Homo sapiens, UniProt Q9Y2K2)
T8 construct: purchased Eurofins (KinaseProfiler)
T8 sequence (Q9Y2K2 whole entry): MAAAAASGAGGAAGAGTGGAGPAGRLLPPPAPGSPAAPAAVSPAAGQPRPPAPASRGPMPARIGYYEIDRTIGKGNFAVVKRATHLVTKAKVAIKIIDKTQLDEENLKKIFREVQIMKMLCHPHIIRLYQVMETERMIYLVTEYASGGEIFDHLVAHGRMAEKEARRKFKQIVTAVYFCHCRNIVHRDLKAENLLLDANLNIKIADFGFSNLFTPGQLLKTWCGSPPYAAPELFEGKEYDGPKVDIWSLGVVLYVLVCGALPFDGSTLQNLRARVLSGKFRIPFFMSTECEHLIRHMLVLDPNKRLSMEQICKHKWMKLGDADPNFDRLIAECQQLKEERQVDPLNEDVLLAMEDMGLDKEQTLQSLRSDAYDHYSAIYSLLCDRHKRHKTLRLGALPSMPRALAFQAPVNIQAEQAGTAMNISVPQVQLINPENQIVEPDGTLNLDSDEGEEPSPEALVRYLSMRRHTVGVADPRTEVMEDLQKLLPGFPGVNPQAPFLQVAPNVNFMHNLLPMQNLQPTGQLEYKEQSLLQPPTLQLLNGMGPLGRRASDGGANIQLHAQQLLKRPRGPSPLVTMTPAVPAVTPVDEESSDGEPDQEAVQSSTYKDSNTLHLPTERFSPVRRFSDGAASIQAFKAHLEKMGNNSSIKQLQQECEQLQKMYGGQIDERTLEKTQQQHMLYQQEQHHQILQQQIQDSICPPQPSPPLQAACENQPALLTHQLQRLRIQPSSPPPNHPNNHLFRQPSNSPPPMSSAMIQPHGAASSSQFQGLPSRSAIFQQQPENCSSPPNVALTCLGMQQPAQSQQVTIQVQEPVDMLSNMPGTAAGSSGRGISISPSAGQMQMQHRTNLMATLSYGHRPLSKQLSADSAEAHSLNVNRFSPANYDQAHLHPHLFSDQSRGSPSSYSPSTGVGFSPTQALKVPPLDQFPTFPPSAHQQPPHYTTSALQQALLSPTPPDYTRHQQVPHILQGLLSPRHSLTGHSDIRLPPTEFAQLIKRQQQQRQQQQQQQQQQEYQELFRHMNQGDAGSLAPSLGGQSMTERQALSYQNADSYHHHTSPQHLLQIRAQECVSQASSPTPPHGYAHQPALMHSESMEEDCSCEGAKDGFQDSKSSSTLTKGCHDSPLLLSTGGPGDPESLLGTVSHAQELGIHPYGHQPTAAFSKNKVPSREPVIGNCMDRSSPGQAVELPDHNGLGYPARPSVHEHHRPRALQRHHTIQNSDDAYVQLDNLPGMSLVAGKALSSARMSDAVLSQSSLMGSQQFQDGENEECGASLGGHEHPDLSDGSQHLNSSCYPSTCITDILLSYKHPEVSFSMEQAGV

T5 sequence (P78362 whole entry): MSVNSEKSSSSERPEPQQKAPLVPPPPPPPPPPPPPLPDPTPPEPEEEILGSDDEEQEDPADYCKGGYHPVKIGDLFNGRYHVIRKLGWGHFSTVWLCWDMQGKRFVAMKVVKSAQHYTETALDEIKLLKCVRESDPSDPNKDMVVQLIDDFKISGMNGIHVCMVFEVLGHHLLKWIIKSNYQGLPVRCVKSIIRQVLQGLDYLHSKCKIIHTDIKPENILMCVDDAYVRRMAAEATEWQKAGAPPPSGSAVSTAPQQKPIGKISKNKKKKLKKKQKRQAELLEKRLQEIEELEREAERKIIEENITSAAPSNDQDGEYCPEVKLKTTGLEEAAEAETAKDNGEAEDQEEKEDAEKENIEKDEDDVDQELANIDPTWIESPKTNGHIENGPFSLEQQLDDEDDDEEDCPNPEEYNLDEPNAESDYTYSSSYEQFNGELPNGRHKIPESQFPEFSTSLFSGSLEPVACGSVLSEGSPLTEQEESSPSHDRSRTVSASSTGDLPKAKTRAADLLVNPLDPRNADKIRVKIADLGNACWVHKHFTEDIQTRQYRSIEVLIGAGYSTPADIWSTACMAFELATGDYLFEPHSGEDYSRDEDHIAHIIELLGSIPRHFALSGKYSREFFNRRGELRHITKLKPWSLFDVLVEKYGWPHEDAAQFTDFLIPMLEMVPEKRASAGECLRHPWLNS
T4 sequence (Q07002 whole entry): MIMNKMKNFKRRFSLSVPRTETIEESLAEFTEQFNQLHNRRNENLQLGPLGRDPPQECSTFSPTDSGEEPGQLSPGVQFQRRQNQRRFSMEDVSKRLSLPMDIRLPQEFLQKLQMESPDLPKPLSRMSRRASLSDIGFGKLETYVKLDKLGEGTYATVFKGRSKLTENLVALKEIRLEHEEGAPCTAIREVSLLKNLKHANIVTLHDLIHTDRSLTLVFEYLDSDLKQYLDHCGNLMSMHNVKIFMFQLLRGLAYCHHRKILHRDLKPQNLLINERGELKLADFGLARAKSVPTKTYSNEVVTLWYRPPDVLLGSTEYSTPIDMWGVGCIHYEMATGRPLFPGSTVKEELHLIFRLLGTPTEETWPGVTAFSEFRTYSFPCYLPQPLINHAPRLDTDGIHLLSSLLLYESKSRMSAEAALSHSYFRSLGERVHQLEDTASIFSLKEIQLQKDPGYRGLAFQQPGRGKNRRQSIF
T4 sequence (Q8ND76 whole entry partner): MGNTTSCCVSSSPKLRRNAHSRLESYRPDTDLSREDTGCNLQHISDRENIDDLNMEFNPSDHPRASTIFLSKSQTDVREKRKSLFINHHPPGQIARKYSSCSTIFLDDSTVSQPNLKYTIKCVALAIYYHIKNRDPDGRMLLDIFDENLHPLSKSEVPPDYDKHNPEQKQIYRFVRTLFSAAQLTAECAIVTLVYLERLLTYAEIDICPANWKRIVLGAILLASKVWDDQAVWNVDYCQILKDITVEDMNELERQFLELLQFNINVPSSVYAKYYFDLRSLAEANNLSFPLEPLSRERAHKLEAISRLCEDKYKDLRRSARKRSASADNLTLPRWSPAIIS
T1 sequence (P07949 29-1114): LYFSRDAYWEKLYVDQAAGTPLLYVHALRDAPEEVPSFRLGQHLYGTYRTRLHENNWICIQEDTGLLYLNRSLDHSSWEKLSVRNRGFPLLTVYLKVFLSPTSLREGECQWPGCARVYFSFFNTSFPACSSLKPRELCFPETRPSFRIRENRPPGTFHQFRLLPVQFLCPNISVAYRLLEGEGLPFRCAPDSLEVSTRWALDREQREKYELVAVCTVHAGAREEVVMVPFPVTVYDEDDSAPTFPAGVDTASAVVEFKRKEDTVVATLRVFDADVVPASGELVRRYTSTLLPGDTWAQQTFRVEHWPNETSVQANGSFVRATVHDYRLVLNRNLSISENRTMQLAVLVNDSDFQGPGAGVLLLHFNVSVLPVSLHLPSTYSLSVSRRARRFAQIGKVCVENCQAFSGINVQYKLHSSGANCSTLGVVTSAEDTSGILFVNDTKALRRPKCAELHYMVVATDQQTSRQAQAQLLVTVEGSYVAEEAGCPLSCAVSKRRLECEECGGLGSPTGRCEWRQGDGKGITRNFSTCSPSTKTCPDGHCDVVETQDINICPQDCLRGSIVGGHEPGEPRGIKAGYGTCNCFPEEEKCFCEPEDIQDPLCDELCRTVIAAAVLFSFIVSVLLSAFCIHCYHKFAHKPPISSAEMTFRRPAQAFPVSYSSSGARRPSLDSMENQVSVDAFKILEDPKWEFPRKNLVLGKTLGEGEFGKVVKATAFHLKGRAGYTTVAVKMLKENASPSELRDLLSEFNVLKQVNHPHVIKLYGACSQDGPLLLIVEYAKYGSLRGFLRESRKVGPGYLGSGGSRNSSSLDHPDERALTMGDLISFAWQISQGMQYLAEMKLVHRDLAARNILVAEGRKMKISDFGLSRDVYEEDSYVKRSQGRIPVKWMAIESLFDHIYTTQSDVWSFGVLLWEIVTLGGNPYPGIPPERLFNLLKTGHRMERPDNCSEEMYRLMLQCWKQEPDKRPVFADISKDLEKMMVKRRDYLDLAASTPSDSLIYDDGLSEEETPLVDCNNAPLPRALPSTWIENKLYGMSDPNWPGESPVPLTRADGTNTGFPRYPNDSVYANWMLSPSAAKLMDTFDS

COc1cc(OC)c(Cl)c(-c2ccc3c(NC(=O)c4ccc(N5CCNC(C)(C)C5)cc4)n[nH]c3n2)c1Cl [3D185] gave an inhibition at 0.01 µM ([1]; 10 nM) of 8%, an inhibition at 0.1 µM ([1]; 100 nM) of 27% and an inhibition at 1 µM ([1]; 1000 nM) of 80%. The inhibition at 0.01 µM ([2]; 10 nM) was -7%, the inhibition at 0.1 µM ([2]; 100 nM) was -7% and the inhibition at 1 µM ([2]; 1000 nM) was -4%. For the same compound, the inhibition at 0.01 µM ([3]; 10 nM) was 2%, the inhibition at 0.1 µM ([3]; 100 nM) was 7% and the inhibition at 1 µM ([3]; 1000 nM) was 47%. For the same compound, the inhibition at 0.01 µM ([4]; 10 nM) was 10%, the inhibition at 0.1 µM ([4]; 100 nM) was 12% and the inhibition at 1 µM ([4]; 1000 nM) was 15%. For the same compound, the inhibition at 0.01 µM ([5]; 10 nM) was 2%, the inhibition at 0.1 µM ([5]; 100 nM) was 2% and the inhibition at 1 µM ([5]; 1000 nM) was -7%. The inhibition at 0.01 µM ([6]; 10 nM) was 0%, the inhibition at 0.1 µM ([6]; 100 nM) was -1% and the inhibition at 1 µM ([6]; 1000 nM) was -1%. The inhibition at 0.01 µM ([7]; 10 nM) was -4%, the inhibition at 0.1 µM ([7]; 100 nM) was -10% and the inhibition at 1 µM ([7]; 1000 nM) was -6%. For the same compound, the inhibition at 0.01 µM ([8]; 10 nM) was -4%, the inhibition at 0.1 µM ([8]; 100 nM) was -1% and the inhibition at 1 µM ([8]; 1000 nM) was -2%.
